Laboratory results taken from US8889112B2, “Ophthalmic formulations including selective alpha 1 antagonists” (Ocularis Pharma, LLC, priority 1999, dated 2014).
“And” between values parts separate entries of the source, which are not always exact repeats. Equal entries are not always repeated. Structures can show the parent of a compound that is named as a salt. Where two headings read alike, the source gives them in different places.

Tests used:
human eye [1] = settings: for Effectiveness in reducing pupil dilation in dim light: topical, phenoxybenzamine, prazosin, tolamine 0.1% to 5%, labetalol S,S and S,R isomers 0.1% to 2%; for Duration of effect: single administration per day, eye drop or drop on soft contact lens
Experimental: A preferred concentration of about 1 to about 5 milligrams of active agent per cc of total formulation volume in an embodiment may be administered by placing a single drop on a moist soft contact lens, and inserting the lens for about 15 minutes to about 45 minutes at one time per day. […] The drop may be administered in a one to five milligram per cc concentration directly to the eye as a recommended daily or BID dosing according to an embodiment of the present invention.
A 5 mg/ml vial of phentolamine was diluted in an artificial tear formulation to approximately 6.0 cc of solution.
Labetalol, a potent beta adrenergic receptor antagonist, consists of four isomers, two of which have some alpha 1 antagonist activity.

human eye [2] = settings: cited from earlier work
human eye [3] = assay: Effect of alpha adrenergic receptor antagonists on pupil dilation (Table 1, patients); type: in vivo; settings: for Effect on pupil diam. in darkness (mm): pupil diameter after drug, from 7.5 mm before, topical, 5 mg/ml (phentolamine 3.3 mg/ml via soft contact lens for 30 minutes)
Text: However, only the imidazolines obtain the desired reduction in dilation without causing excessive redness of the eye. In addition, the present invention in an embodiment provides a sub-class of alpha antagonists that can act as a sole active component in an ophthalmic medication to effectively reduce pupil light reflex while providing minimal, if any, redness response upon application thereof to the eye. In an embodiment, the sub-class of alpha antagonists includes alpha 1 selective antagonists, including alpha 1a selective antagonists, such as tamsulosin.

human eye [4] = assay: Effect of phentolamine eye drops on visual acuity in dim light (Table 3); type: in vivo; settings: one line per subject
Text: The results illustrate the benefit that is derived from reducing pupil diameter by 1 mm or more and/or pupil area by 20% or more in dim light conditions pursuant to an embodiment. In this regard, a significant increase in spherical aberrations is typically found per each one millimeter of increase in pupil size diameter above 5 mm. These aberrations generally increase as a function of severity of the refractive error, particularly increases in the myopic spherical equivalent of refractive error. Coma may increase, as well as other higher order aberrations, as pupil size diameter increases, again especially as refractive error increases. Thus, a reduction in pupil diameter by 1 mm or more and/or pupil area by 20% or more can effectively act to improve vision in dim light conditions. As previously discussed, the present invention contemplates the use of a single active agent, preferably an alpha 1a selective antagonist, that can optimize pupil light reflex while minimizing, if not eliminating, redness. [table]

human eye [5] = assay: Effect of phentolamine 0.35% on pupil diameter in dim and bright light (Table 2); type: in vivo
[6] = duration of effect on pupil, 5 mg/ml (phentolamine 3.3 mg/ml via soft contact lens)
[7] = pupil diameter after 3.3 mg/cc, single drop on soft contact lens placed for 30 minutes, one line per subject
[8] = pupil diameter before drug (baseline), one line per subject

Compound: Cc1ccccc1N1CCN(CCc2nnc3n2CCCC3)CC1 [Dapiprazole, 5,6,7,8 tetrahydro-3-[2-(4-o,tolyl-1-piperazinyl)ethyl]-8-triazolo[4,3-a]pyridine hydrochloride]
- Redness / vasodilation of the eye (human eye [1]; in vivo): unacceptably high levels of eye redness with severe blood vessel dilation
- Effectiveness in reducing pupil dilation in dim light (human eye [1]): minimal if any clinically significant effect
- Redness and chemosis upon instillation (human eye [2]; 0.5% solution): substantial increased redness and conjunctival chemosis
- Effectiveness in reducing pupil size in dim light (human eye [2]; topical, compared to phentolamine and phenoxybenzamine, U.S. Pat. No. 6,515,006): not as effective
- Duration (human eye [3]; [6]): 5 to 12 h
- Effect on pupil diam. in darkness (mm) (human eye [3]): 7.5 -> 7 mm

Compound: CC(CCc1ccccc1)NCC(O)c1ccc(O)c(C(N)=O)c1 (stereo not drawn) [Labetalol]
- Effectiveness in reducing pupil dilation in dim light (human eye [1]): modestly effective

Compound: CC(COc1ccccc1)N(CCCl)Cc1ccccc1 (stereo not drawn) [Phenoxybenzamine]
- Redness / vasodilation of the eye (human eye [1]; topical application as only active compound): induce much more vasodilation and congestion
- Redness / vasodilation of the eye (human eye [1]; topical application as only active compound, listed as phenoxybenzamine): unacceptably high level of redness
- Effectiveness in reducing pupil dilation in dim light (human eye [1]): have not been as effective as phentolamine
- Duration (hrs) (human eye [3]; [6]): ≧20 hrs
- Effect on pupil diam. in darkness (mm) (human eye [3]): 7.5 -> 5.5 mm

Compound: Cc1ccc(N(CC2=NCCN2)c2cccc(O)c2)cc1 [Phentolamine]
- Pupil Diameter in Dim Light Post-Drug mm (human eye [4]; after phentolamine eye drops): 6.9 mm (2×) and 7.1 mm (2×) and 5.9 mm (2×) and 7.5 mm and 6.5 mm and 7.4 mm
- Pupil Diameter in Dim Light Pre-Drug mm (human eye [4]; before drug (baseline)): 7.7 mm and 8.5 mm and 7.9 mm (3×) and 7.8 mm (2×) and 8.2 mm (2×)
- Pupil Diameter Change mm (human eye [4]; reduction in dim light, pre minus post): 0.8 mm (2×) and 1.4 mm (2×) and 2.0 mm and 0.9 mm and 0.4 mm and 1.1 mm and 1.9 mm
- Pupil Area Change % (human eye [4]; reduction of pupil area in dim light): 20% and 30% and 44% and 22% and 10% and 25% and 32% and 19% and 43%
- Dim Light Contrast Post-Drug (human eye [4]; visual acuity after phentolamine eye drops): 20/25 and 20/22 and 20/20 and 20/24 and 20/38 and 20/21 (2×) and 20/32 and 20/50
- Dim Light Contrast Pre-Drug (human eye [4]; visual acuity before drug (baseline)): 20/29 (2×) and 20/35 and 20/32 (2×) and 20/63 and 20/38 and 20/40 and 20/53
- Redness / vasodilation of the eye (human eye [1]; in vivo): very slight, transient redness
- Duration of effect (human eye [1]): 20 to 24 h
- Duration of effect (human eye [1]; listed as phentolamine): 20 to 24 h
- Bright Light Post mm (human eye [5]; [7]): 3.0 mm (2×) and 2.5 mm (3×)
- Dim Light Post mm (human eye [5]; [7]): 4.0 mm (3×) and 3.0 mm and 3.5 mm
- Bright Light Pre mm (human eye [5]; [8]): 4.0 mm and 3.0 mm (3×) and 3.5 mm
- Dim Light Pre mm (human eye [5]; [8]): 7.5 mm (2×) and 3.5 mm and 4.0 mm and 7.0 mm
- halos reduced (human eye [5]; subject, post drug): 70% reduced; depth
- Duration (human eye [3]; [6]): 20 to 40 h
- Effect on pupil diam. in darkness (mm) (human eye [3]): 7.5 -> 4.0 mm

Compound: COc1cc2nc(N3CCN(C(=O)c4ccco4)CC3)nc(N)c2cc1OC [Prazosin]
- Duration (human eye [3]; [6]): 5 to 12 h
- Effect on pupil diam. in darkness (mm) (human eye [3]): 7.5 -> 6 mm

Compound: CC[C@@H]1C(=O)OC[C@@H]1Cc1cncn1C [pilocarpine]
- Duration of miotic effect (human eye [2]; in vivo): only a few hours
- Side effects (human eye [2]; in vivo): brow ache, ciliary muscle contraction and pseudo myopia, excessive dimness when first applied
- Pupil size when first applied (human eye [2]; usually): less than 2 mm

Compound: Tolamine
- Effectiveness in reducing pupil dilation in dim light (human eye [1]): slight pupillary reduction in dilation in dim light but appears to be less effective than phentolamine
- Duration (human eye [3]; [6]): 5 to 12 h
- Effect on pupil diam. in darkness (mm) (human eye [3]): 7.5 -> 6 mm
